In general, IC50 refers to the concentration needed to halve the response being measured.

Like-named read-outs stand apart in the source and are kept apart here. Bounds are passed on as bounds.

In patent US20100048597A1 (Novartis AG, priority 2006, published 2010) one finds IC50 data, which are given here for 30 molecules.

Holding throughout (format): biochemical
One test deals with T1, CDK9/cyclinT1 (Homo sapiens, UniProt P50750).
T1 construct: purchased Millipore
Description: CDK9/cyclinT1 kinase assay, IMAP fluorescence polarization. On the procedure:
(§1) Kinase assays were performed on recombinant purified enzymes using the non-radioactive IMAP fluorescence polarization assay format.
(§2) Compound stocks were prepared and diluted in DMSO and were added to kinase reactions at a 1/100 dilution for a final concentration of 1% DMSO. The components were added together to final concentrations listed in the tables below and incubated for two hours at room temperature.
(§3) The reactions were stopped by addition of stop solution.
CDK9/CDK1/CDK7: final stop concentration is 1× Developer buffer (85% A/15% B), IMAP beads 1/400
(§4) The samples were allowed to incubate for one more hour at room temperature and then the fluorescence polarization was measured. The plate normalized millipolarization (mP) values were plotted against the log of compound concentration for each compound and IC50 values were calculated using the spotfire IC50 calculator and confirmed by visual analysis.
(In general: In fluorescence polarisation assays a small probe gives low polarisation when free and higher when bound to something large.)

In another test the target is T2, CDK2/cyclinA (Homo sapiens, UniProt P24941).
T2 construct: purchased Millipore
The test is described as follows: CDK2/cyclinA kinase assay, IMAP fluorescence polarization. Here is the method: as §1, §2, §3
CDK2: final stop concentration is 1× Developer buffer (100% A), IMAP beads 1/400
as §4

Another test addresses T3, CDK1/cyclinB (Homo sapiens, UniProt P06493).
T3 construct: purchased Millipore
The test is described as follows: CDK1/cyclinB kinase assay, IMAP fluorescence polarization. On the procedure: as §1, §2, §3
The samples were allowed to incubate for one more hour at room temperature and then the fluorescence polarization was measured.

T3 sequence (P06493 whole entry): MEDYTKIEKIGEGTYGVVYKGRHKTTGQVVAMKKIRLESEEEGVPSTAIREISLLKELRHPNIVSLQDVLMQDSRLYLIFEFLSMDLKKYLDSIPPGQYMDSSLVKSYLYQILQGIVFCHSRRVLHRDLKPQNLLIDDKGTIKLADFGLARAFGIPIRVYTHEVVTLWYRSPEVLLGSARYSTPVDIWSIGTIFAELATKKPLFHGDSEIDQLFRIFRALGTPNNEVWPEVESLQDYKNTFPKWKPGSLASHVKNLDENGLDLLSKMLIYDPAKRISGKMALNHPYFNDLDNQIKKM
T3 sequence (P14635 whole entry partner): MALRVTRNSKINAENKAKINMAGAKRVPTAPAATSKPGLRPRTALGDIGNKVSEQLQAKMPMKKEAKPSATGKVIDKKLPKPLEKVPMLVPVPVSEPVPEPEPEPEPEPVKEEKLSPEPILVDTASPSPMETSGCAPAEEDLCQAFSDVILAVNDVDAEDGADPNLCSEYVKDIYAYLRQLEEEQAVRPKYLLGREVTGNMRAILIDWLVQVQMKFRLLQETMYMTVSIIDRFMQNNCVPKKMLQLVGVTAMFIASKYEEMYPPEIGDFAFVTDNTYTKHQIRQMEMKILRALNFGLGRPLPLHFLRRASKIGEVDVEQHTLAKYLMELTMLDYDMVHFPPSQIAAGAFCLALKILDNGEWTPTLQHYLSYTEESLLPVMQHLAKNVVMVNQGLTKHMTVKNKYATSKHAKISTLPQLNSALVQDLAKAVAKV
T1 sequence (P50750 whole entry): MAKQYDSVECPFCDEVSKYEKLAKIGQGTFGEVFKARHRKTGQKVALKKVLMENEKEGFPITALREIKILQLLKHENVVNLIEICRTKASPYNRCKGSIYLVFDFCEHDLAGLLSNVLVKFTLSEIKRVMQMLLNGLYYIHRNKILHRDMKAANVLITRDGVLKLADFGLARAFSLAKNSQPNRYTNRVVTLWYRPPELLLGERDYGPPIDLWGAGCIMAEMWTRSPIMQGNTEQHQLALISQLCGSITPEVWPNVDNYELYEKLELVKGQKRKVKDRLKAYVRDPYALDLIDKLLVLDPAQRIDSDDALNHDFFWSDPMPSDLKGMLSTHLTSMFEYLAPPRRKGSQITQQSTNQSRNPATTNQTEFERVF
T1 sequence (O60563 whole entry partner): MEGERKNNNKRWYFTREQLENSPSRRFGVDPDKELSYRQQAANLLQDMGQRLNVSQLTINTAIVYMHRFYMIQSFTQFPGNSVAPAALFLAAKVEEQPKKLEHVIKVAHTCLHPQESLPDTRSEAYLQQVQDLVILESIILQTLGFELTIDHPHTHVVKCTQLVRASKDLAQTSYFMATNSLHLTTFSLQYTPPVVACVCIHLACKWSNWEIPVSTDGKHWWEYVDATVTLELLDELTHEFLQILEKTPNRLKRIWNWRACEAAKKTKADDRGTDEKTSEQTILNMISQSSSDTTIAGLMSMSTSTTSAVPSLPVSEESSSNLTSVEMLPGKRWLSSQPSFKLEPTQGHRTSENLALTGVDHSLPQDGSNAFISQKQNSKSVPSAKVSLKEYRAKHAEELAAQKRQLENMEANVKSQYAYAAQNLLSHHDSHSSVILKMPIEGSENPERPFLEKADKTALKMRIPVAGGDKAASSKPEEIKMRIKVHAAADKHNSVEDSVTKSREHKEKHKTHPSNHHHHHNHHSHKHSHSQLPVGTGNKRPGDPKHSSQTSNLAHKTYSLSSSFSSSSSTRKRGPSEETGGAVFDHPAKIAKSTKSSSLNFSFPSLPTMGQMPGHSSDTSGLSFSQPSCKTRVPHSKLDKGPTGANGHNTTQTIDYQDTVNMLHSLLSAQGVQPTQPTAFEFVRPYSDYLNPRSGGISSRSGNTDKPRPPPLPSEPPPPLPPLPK

Consider `Nc1cnccc1-c1ccnc(Nc2cccc(Cl)c2)n1` [Compound 1, [4-(3-Amino-pyridin-4-yl)-pyrimidin-2-yl]-(3-chloro-phenyl)-amine], for which the IC50 against CDK9/cyclinT1, against CDK2/cyclinA and at CDK1/cyclinB (read-out: CDK1 IC50) was under 5 µM each time.

`COCCCNc1nccc(-c2ccnc(Nc3cccc(Cl)c3)n2)c1C` [Compound 18, (3-Chloro-phenyl)-{4-[2-(3-methoxy-propylamino)-3-methyl-pyridin-4-yl]-pyrimidin-2-yl}-amine]: the 50% inhibitory concentration (IC50) against CDK9/cyclinT1, on CDK2/cyclinA and on CDK1/cyclinB (read-out: CDK1 IC50) was under 5 µM throughout.

Consider `Clc1cccc(Nc2nccc(-c3cccnc3Cl)n2)c1` [Compound 43, (3-Chloro-phenyl)-[4-(2-chloro-pyridin-3-yl)-pyrimidin-2-yl]-amine], for which the half-inhibitory concentration (IC50) on CDK9/cyclinT1 and at CDK1/cyclinB (read-out: CDK1 IC50) was under 5 µM throughout.

`Clc1cccc(Nc2nccc(-c3cccnc3NCC3CCCCC3)n2)c1` [Compound 50, (3-Chloro-phenyl)-{4-[2-(cyclohexylmethyl-amino)-pyridin-3-yl]-pyrimidin-2-yl}-amine]: the IC50 at CDK9/cyclinT1, against CDK2/cyclinA and on CDK1/cyclinB (read-out: CDK1 IC50) was over 50 µM in each case.

`CS(=O)(=O)c1cccc(Nc2nccc(-c3cccnc3Nc3cccc(S(C)(=O)=O)c3)n2)c1` [Compound 51, (3-Methanesulfonyl-phenyl)-{4-[2-(3-methanesulfonyl-phenylamino)-pyridin-3-yl]-pyrimidin-2-yl}-amine]: the half-inhibitory concentration (IC50) at CDK9/cyclinT1 and at CDK1/cyclinB (read-out: CDK1 IC50) was under 5 µM each time.

Regarding `CN(C)CCNc1ncccc1-c1ccnc(Nc2cccc(Cl)c2)n1` [Compound 53, N-{3-[2-(3-Chloro-phenylamino)-pyrimidin-4-yl]-pyridin-2-yl}-N′,N′-dimethyl-ethane-1,2-diamine], the half-inhibitory concentration (IC50) at CDK9/cyclinT1 was under 5 µM; against CDK2/cyclinA it was 5 to 15 µM; on CDK1/cyclinB (read-out: CDK1 IC50), 15 to 50 µM.

Regarding `CC(=O)NCCNc1ncccc1-c1ccnc(Nc2cccc(Cl)c2)n1` [Compound 54, N-(2-{3-[2-(3-Chloro-phenylamino)-pyrimidin-4-yl]-pyridin-2-ylamino}-ethyl)-acetamide], the IC50 against CDK9/cyclinT1, against CDK2/cyclinA and at CDK1/cyclinB (read-out: CDK1 IC50) was under 5 µM each time.

On to `Cc1cnc(Nc2cccc(Cl)c2)nc1-c1cccnc1NCCCN` [Compound 56, N-{3-[2-(3-Chloro-phenylamino)-5-methyl-pyrimidin-4-yl]-pyridin-2-yl}-propane-1,3-diamine], for which the IC50 at CDK9/cyclinT1, on CDK2/cyclinA and at CDK1/cyclinB (read-out: CDK1 IC50) was under 5 µM each time.

Turning to `CCCCNc1ncccc1-c1nc(Nc2cccc(Cl)c2)ncc1C` [Compound 57, [4-(2-Butylamino-pyridin-3-yl)-5-methyl-pyrimidin-2-yl]-(3-chloro-phenyl)-amine], the IC50 against CDK9/cyclinT1 was under 5 µM; at CDK2/cyclinA, over 50 µM; on CDK1/cyclinB (read-out: CDK1 IC50), over 50 µM.

On to `CNCCCNc1ncccc1-c1ccnc(Nc2cccc(Cl)c2)n1` [Compound 62, N-{3-[2-(3-Chloro-phenylamino)-pyrimidin-4-yl]-pyridin-2-yl}-N′-methyl-propane-1,3-diamine], for which the half-inhibitory concentration (IC50) is under 5 µM against CDK9/cyclinT1, 5 to 15 µM against CDK2/cyclinA and 5 to 15 µM on CDK1/cyclinB (read-out: CDK1 IC50).

As to `CC(=O)NCCCNc1ncccc1-c1nc(Nc2cccc(Cl)c2)ncc1C` [Compound 66, N-(3-{3-[2-(3-Chloro-phenylamino)-5-methyl-pyrimidin-4-yl]-pyridin-2-ylamino}-propyl)-acetamide], the IC50 was under 5 µM on CDK9/cyclinT1, 15 to 50 µM on CDK2/cyclinA and over 50 µM on CDK1/cyclinB (read-out: CDK1 IC50).

As for `CC(C)(C)C(=O)NCCCNc1ncccc1-c1ccnc(Nc2cccc(Cl)c2)n1` [Compound 70, N-(3-{3-[2-(3-Chloro-phenylamino)-pyrimidin-4-yl]-pyridin-2-ylamino}-propyl)-2,2-dimethyl-propionamide], the half-inhibitory concentration (IC50) is under 5 µM against CDK9/cyclinT1, 5 to 15 µM at CDK2/cyclinA and 5 to 15 µM on CDK1/cyclinB (read-out: CDK1 IC50).

As for `CC(C)(C)CC(=O)NCCCNc1ncccc1-c1ccnc(Nc2cccc(Cl)c2)n1` [Compound 71, N-(3-{3-[2-(3-Chloro-phenylamino)-pyrimidin-4-yl]-pyridin-2-ylamino}-propyl)-3,3-dimethyl-butyramide], the IC50 on CDK9/cyclinT1 was under 5 µM; on CDK2/cyclinA it was over 50 µM; at CDK1/cyclinB (read-out: CDK1 IC50) it was 5 to 15 µM.

Turning to `COCCCNc1ncccc1-c1ccnc(Nc2cccc(Cl)c2)n1` [Compound 75, (3-Chloro-phenyl)-{4-[2-(3-methoxy-propylamino)-pyridin-3-yl]-pyrimidin-2-yl}-amine], the IC50 on CDK9/cyclinT1 is under 5 µM; against CDK2/cyclinA, under 5 µM; on CDK1/cyclinB (read-out: CDK1 IC50), 5 to 15 µM.

As for `CC(=O)OCCCNc1ncccc1-c1ccnc(Nc2cccc(Cl)c2)n1` [Compound 76, Acetic acid 3-{3-[2-(3-chloro-phenylamino)-pyrimidin-4-yl]-pyridin-2-ylamino}-propyl ester], the IC50 was under 5 µM on CDK9/cyclinT1, under 5 µM on CDK2/cyclinA and 5 to 15 µM at CDK1/cyclinB (read-out: CDK1 IC50).

As for `O=C1CCCN1CCCNc1ncccc1-c1ccnc(Nc2cccc(Cl)c2)n1` [Compound 77, 1-(3-{3-[2-(3-Chloro-phenylamino)-pyrimidin-4-yl]-pyridin-2-ylamino}-propyl)-pyrrolidin-2-one], the IC50 on CDK9/cyclinT1, against CDK2/cyclinA and at CDK1/cyclinB (read-out: CDK1 IC50) was under 5 µM each time.

`Clc1cccc(Nc2nccc(-c3cccnc3NCCCN3CCOCC3)n2)c1` [Compound 78, (3-Chloro-phenyl)-{4-[2-(3-morpholin-4-yl-propylamino)-pyridin-3-yl]-pyrimidin-2-yl}-amine]: the figures for the IC50 at CDK9/cyclinT1, on CDK2/cyclinA and at CDK1/cyclinB (read-out: CDK1 IC50) were under 5 µM, under 5 µM and 5 to 15 µM, respectively.

Regarding `Cc1nccn1CCCNc1ncccc1-c1ccnc(Nc2cccc(Cl)c2)n1` [Compound 81, (3-Chloro-phenyl)-(4-{2-[3-(2-methyl-imidazol-1-yl)-propylamino]-pyridin-3-yl}-pyrimidin-2-yl)-amine], the 50% inhibitory concentration (IC50) against CDK9/cyclinT1, against CDK2/cyclinA and on CDK1/cyclinB (read-out: CDK1 IC50) was under 5 µM throughout.

As for `Cc1cnc(Nc2cccc(Cl)c2)nc1-c1cccnc1NCCCn1ccnc1C` [Compound 82, (3-Chloro-phenyl)-(5-methyl-4-{2-[3-(2-methyl-imidazol-1-yl)-propylamino]-pyridin-3-yl}-pyrimidin-2-yl)-amine], the half-inhibitory concentration (IC50) against CDK9/cyclinT1 is under 5 µM; on CDK2/cyclinA, 15 to 50 µM; against CDK1/cyclinB, 5 to 15 µM.

On to `CC(=O)NCCCCNc1ncccc1-c1ccnc(Nc2cccc(Cl)c2)n1` [Compound 85, N-(4-{3-[2-(3-Chloro-phenylamino)-pyrimidin-4-yl]-pyridin-2-ylamino}-butyl)-acetamide], for which the IC50 on CDK9/cyclinT1, against CDK2/cyclinA and on CDK1/cyclinB (read-out: CDK1 IC50) was under 5 µM in each case.

Consider `COc1ncccc1-c1ccnc(N)n1` [Compound 86, 4-(2-Methoxy-pyridin-3-yl)-pyrimidin-2-ylamine], for which the results for the half-maximal inhibitory concentration (IC50) at CDK9/cyclinT1 and at CDK1/cyclinB (read-out: CDK1 IC50) were 15 to 50 µM and over 50 µM, respectively.

In the case of `CNc1nccc(-c2cccnc2OC)n1` [Compound 87, [4-(2-Methoxy-pyridin-3-yl)-pyrimidin-2-yl]-methyl-amine], the concentration for half-maximal inhibition (IC50) against CDK9/cyclinT1 and on CDK1/cyclinB (read-out: CDK1 IC50) was 15 to 50 µM each time.

With `COc1ncccc1-c1ccnc(NC2CCCCC2)n1` [Compound 88, Cyclohexyl-[4-(2-methoxy-pyridin-3-yl)-pyrimidin-2-yl]-amine], the results for the half-inhibitory concentration (IC50) at CDK9/cyclinT1 and on CDK1/cyclinB (read-out: CDK1 IC50) were 5 to 15 µM and 15 to 50 µM, respectively.

As for `COc1ncccc1-c1ccnc(Nc2ccncc2)n1` [Compound 89], the 50% inhibitory concentration (IC50) at CDK9/cyclinT1, on CDK2/cyclinA and on CDK1/cyclinB (read-out: CDK1 IC50) was over 50 µM each time.

With `COc1ncccc1-c1ccnc(Nc2cccnc2)n1` [Compound 90, [4-(2-Methoxy-pyridin-3-yl)-pyrimidin-2-yl]-pyridin-3-yl-amine], the IC50 against CDK9/cyclinT1, against CDK2/cyclinA and at CDK1/cyclinB (read-out: CDK1 IC50) was over 50 µM in each case.

`COc1ncccc1-c1ccnc(Nc2cccc([N+](=O)[O-])c2)n1` [Compound 92, [4-(2-Methoxy-pyridin-3-yl)-pyrimidin-2-yl]-(3-nitro-phenyl)-amine]: the results for the half-maximal inhibitory concentration (IC50) at CDK9/cyclinT1, on CDK2/cyclinA and at CDK1/cyclinB (read-out: CDK1 IC50) were under 5 µM, over 50 µM and over 50 µM, respectively.

Consider `COc1ncccc1-c1ccnc(Nc2cccc(C(=O)O)c2)n1` [Compound 94, 3-[4-(2-Methoxy-pyridin-3-yl)-pyrimidin-2-ylamino]-benzoic acid], for which the IC50 is 15 to 50 µM against CDK9/cyclinT1, under 5 µM on CDK2/cyclinA and 15 to 50 µM at CDK1/cyclinB (read-out: CDK1 IC50).

`COc1ncccc1-c1ccnc(Nc2cccc(C(N)=O)c2)n1` [Compound 95, 3-[4-(2-Methoxy-pyridin-3-yl)-pyrimidin-2-ylamino]-benzamide]: the IC50 on CDK9/cyclinT1, on CDK2/cyclinA and at CDK1/cyclinB (read-out: CDK1 IC50) was under 5 µM each time.

In the case of `CCNC(=O)c1cccc(Nc2nccc(-c3cccnc3OC)n2)c1` [Compound 96, N-Ethyl-3-[4-(2-methoxy-pyridin-3-yl)-pyrimidin-2-ylamino]-benzamide], the IC50 on CDK9/cyclinT1, on CDK2/cyclinA and on CDK1/cyclinB (read-out: CDK1 IC50) was under 5 µM each time.

Turning to `COc1ccc(-c2ccnc(Nc3cccc(Cl)c3)n2)c(OC)n1` [Compound 118, (3-Chloro-phenyl)-[4-(2,6-dimethoxy-pyridin-3-yl)-pyrimidin-2-yl]-amine], the IC50 on CDK9/cyclinT1 is 5 to 15 µM; at CDK1/cyclinB (read-out: CDK1 IC50) it was over 50 µM.
